For orientation: melting point means the temperature, or range, at which the solid turns liquid.

Where only a bound is given, the exact number is not on record here.

In the case of `CCCc1c(O)c(C(C)=O)cc(Cl)c1OCCOCCOc1c(C(C)=O)ccc(OCC(=O)O)c1CCC`, the melting point was 89 to 91 °C. In the case of `CN(CCCN)CC(O)C(O)C(O)C(O)CO` (centres undefined) it was 106 °C; in that of `BrCCCCCCOc1ccc(OCc2ccccc2)cc1`, 72 to 73 °C; in that of `O=C(c1ccc2c(c1)C(=O)N1CCC[C@H]1CO2)N1CCOCC1`, 158 to 161 °C.

For `CSC(=NCCN(C)C)NC#N`, the melting point lay within 94 to 95 °C. Under `CCOC(=O)c1cnn2c(-c3cccc(N(CC)C(=O)OC)c3)ccnc12` stands 117 °C; under `O=c1[nH]c(=S)[nH]cc1CCCc1ccccc1`, 180 to 182 °C. Under `Cc1cccc(CCC(O)c2ccccc2)c1NC(=O)CC1c2ccccc2Oc2ccccc21` (centres undefined) stands 193 to 194 °C; under `O=C1c2c(Br)cccc2-n2cnc(-c3noc(CCl)n3)c2[C@@H]2CCCN12`, 242 to 244 °C; under `Nc1nc2ccccc2c2c1ncn2CCOCC#Cc1nccs1`, 157 to 159 °C. `CSc1ccc(-c2coc3ccc(-c4nnc(C)o4)cc23)cc1F`: the melting point was 179 to 180 °C. In the case of `O=C(O)CC1(c2ccc(Cl)cc2Cl)CNC(=O)C1` (centres undefined) it was 188 to 192 °C; in that of `O=c1cc(CO)oc2cc(OCCCCl)ccc12`, 110 to 112 °C. Under `CC1(CN2CCN(C(=O)Cc3ccc(Cl)c(Cl)c3)CC2)Cn2cc([N+](=O)[O-])nc2O1` (centres undefined) stands 189 to 191 °C. For the compound `N#Cc1ccc(-c2ccc(O)cc2)cc1F`, the melting point lay within 67 to 68 °C.

On to `O=C(c1ccccc1)C(O)Cc1cccc(O)c1` (centres undefined), for which the melting point was 118 to 119 °C.

In the case of `O=[N+]([O-])c1ccc(Cl)c(C=Cc2nc3ccccc3o2)c1`, the melting point is 230 °C. In the case of `CC1(C)C(C=CC(=O)Cl)C1C(=O)OC(C#N)c1cccc(Oc2ccccc2)c1` (centres undefined), the melting point amounted to 86 °C. Under `N#Cc1ccc2[nH]c(=O)c3ccccc3c(=O)c2c1` stands more than 300 °C; under `CN(C)CC1=NC(O)(CCl)CS1` (centres undefined), 90 to 92 °C. Take `COc1ccc(-c2ccc(-c3ccc(C(F)(F)F)cc3)nc2-c2ccc(OC)cc2)cc1`: the melting point was in the range of 144 to 147 °C. Under `CCNC(=O)/C=C/c1cnoc1-c1ccccc1` stands 156 to 157 °C. In the case of `COc1ccc2cc(C(C)C(=O)O)ccc2c1Br` (centres undefined) it was 149 to 151 °C; in that of `[N-]=[N+]=NC1=C([C@H]2CC[C@H](c3ccc(Cl)cc3)CC2)C(=O)c2ccccc2C1=O`, 130 to 135 °C. In the case of `CC(C)(CO)NS(=O)(=O)c1ccc(Cl)c(NC(=O)c2cnn3c(C(F)F)cc(-c4ccc(C(F)(F)F)cc4)nc23)c1` it was 234 °C; in that of `COC(=O)COc1ccc(CCN2CCN(c3ccncc3)CC2)cc1`, 104 to 105 °C; in that of `CC(=O)NCc1ccc2oc([N+](=O)[O-])c(-c3ccccc3)c2c1`, 201 to 203 °C.

`CCCCc1ccc(NC(N)=S)cc1`: the melting point is 123 to 125 °C. `CC1(C)CCCN(C(=O)[C@H]2C[C@@H](S(=O)(=O)c3ccccc3)[C@@H](c3ccccc3F)N2C(=O)CNC(=O)Nc2cccc(C(=O)O)c2)C1` (racemic) showed a melting point of 258 °C. In the case of `O=c1n(-c2ccccc2)nc2n1-c1ccccc1Oc1ccccc1-2` it was 176 to 177 °C; in that of `O=C(CCN1CCN(c2cccc(C(F)(F)F)c2)CC1)c1ccc2oc3ccc(C(=O)CCN4CCN(c5cccc(C(F)(F)F)c5)CC4)cc3c(=O)c2c1`, 166 to 167 °C. In the case of `CC(=O)Nc1ccc(C(=N)Nc2cc(NC(=O)/C=C/c3ccccc3C(F)(F)F)c(F)cc2F)cc1` it was 180 to 185 °C; in that of `Cc1ccc(S(=O)(=O)N(CCO)c2cc(C)cc([N+](=O)[O-])c2N)cc1`, 201 °C. Under `CN(C)NC(=O)N1CCC(Br)C1=O` (centres undefined) stands 78 to 79 °C.
